Assays:
Format in all cases: cell-based
[1] = biological target: T1, MRGPRX2 (Homo sapiens, UniProt Q96LB1); experiment: MRGPRX2 β-Arrestin Assay; design: host or cells: PathHunter CHO-K1; conditions: PathHunter CHO-K1 MRGPRX2 β-Arrestin cell line; agonist Cortistatin 14 0.25 μM
T1 sequence (Q96LB1 1-330): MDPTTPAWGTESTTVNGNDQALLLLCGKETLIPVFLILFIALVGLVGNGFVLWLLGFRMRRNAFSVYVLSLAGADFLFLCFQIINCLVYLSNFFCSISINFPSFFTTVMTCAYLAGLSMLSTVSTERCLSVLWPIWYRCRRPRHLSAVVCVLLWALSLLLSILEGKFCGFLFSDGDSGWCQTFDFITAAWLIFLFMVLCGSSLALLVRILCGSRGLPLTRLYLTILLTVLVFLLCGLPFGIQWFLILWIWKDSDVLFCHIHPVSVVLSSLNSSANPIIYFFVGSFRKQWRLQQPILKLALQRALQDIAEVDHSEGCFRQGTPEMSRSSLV
From the text: Example C: MRGPRX2 β-Arrestin Assay
This assay measures compound inhibition of β-Arrestin recruitment, which is part of the G protein-independent pathway that results from the ligand-activated GPCR phosphorylation by specific GPCR kinases. The PathHunter CHO-K1 MRPGRX2 B-Arrestin Cell line stably expressing ProLink tagged MRGPRX2 and Enzyme Acceptor Tagged B-Arrestin was purchased from Eurofins DiscoverX, (Fremont, CA).
The cells were maintained in culture medium from the Europhins DiscoverX Cell Culture Kit-107 which includes FBS, hygromycin B and G418. For the assay, the cells were harvested and were resuspended with Cell Plating Reagent 2 (Eurofins DiscoverX). Cells were added 10000 cells in 25 μL/well to a 384-well black cell culture plate (Greiner VWR, Radnor, PA) which contained 125 nL/well of compound at a selected serially diluted concentration range or DMSO. The plate was incubated at 37° C. with 5% CO2 for 1 h. 2 μL/well of agonist Cortistatin 14 was diluted in Protein Dilution Buffer, (Eurofins DiscoverX) for a final concentration of 0.25 μM, was added and the plate was incubated at 37° C. with 5% CO2 for 90 min. 14 μL/well of Detection Reagent Mix (PathHunter Detection Kit, Eurofins DiscoverX) was added to the plates and further incubated for 1 h in the dark. Plates were read on the PHERAstar microplate reader (BMG Labtech Cary, NC) measuring luminescence 0.1 to 1 s per well. Data was normalized using DMSO only wells and wells with high concentration of reference antagonist as controls. Compound IC50 curves were globally fitted with 3- or 4-parameter Hill equation in a Genedata Screener (Genedata Basel, Switzerland).

[2] = biological target: T1, MRGPRX2; experiment: MRGPRX2 FLIPR Calcium Mobilization Assay; design: host or cells: CHO-K1; conditions: CHO-K1 cells stably expressing human MRGPRX2; Ca2+ release; agonist Cortistatin-14 at EC80
Method: Example A. MRGPRX2 FLIPR Calcium Mobilization Assay
Chinese hamster ovary (CHO-K1) cells stably expressing human MRGPRX2 were purchased from Genescript (Piscataway, NJ). The cells were maintained in culture medium (Ham's F-12K) containing 10% (v/v) FBS, 200 μg/mL Zeocin, 100 units/mL penicillin G and 100 μg/mL streptomycin (Life Technologies, Carlsbad, CA). For the assay, the cells were harvested and resuspended with culture medium without Zeocin before plating at 8000 cells per well in 20 μL in 384-well black clear bottom cell culture plates (VWR, Radnor, PA). After 24 hour culture at 37° C. and 5% CO2, the cells were loaded with 20 μL/well of calcium dye (FLIPR Calcium 6 Assay Kit, Molecular Devices, San Jose, CA) diluted in loading buffer (1× Hank's Balanced Salt Solution (HBSS), 5 mM probenecid, 20 mM 4-(2-hydroxyethyl)-1-piperazineethanesulfonic acid (HEPES), pH 7.4, VWR, Radnor, PA) followed with 45 min incubation at 37° C. and 40 min. at r.t. in the dark. Cells were then treated with the addition of 10 uL/well test compounds with a range of increasing concentrations diluted in the assay buffer (1×HBSS, 20 mM HEPES, pH 7.4, VWR, Radnor, PA) with FLIPR Penta (Molecular Devices. San Jose, CA) and incubated for 30 min. at r.t. Ca^2+ release was measured with FLIPR Penta with 10 s basal fluorescence measurement, then 12.5 μL of 5× agonist Cortistatin-14 (Tocris, Minneapolis, MN) at final concentration corresponding to the EC80 were added followed with continued fluorescence signal monitoring for an additional 110 s. The base line adjusted (median of first 10s base line) max value of the Relative Fluorescence Unit (RFU) was plotted against compound concentrations. Wells with no compound were served as the positive controls, and wells with high concentration of reference antagonist were used as negative controls. IC50 curves were globally fitted with 3- or 4-parameter Hill equation in a Genedata Screener (Genedata Basel, Switzerland).

[3] = biological target: T1, MRGPRX2; experiment: MRGPRX2 IP1 HTRF Assay; design: host or cells: CHO-K1; conditions: CHO-K1 cells stably expressing human MRGPRX2; IP1 accumulation; agonist Cortistatin 14 1 μM
From the text: Example B: MRGPRX2 IP1 HTRF Assay
This assay measures compound inhibition of myo-Inositol 1 phosphate (IP1) accumulation in CHO-K1 cells. Chinese hamster ovary (CHO-K1) cells stably expressing human MRGPRX2 were purchased from GenScript (Piscataway, NJ).
For the HTRF IP1 determination, an IP-One GqKit (Perkin Elmer Cisbio, Waltham, MA), which includes all reagents and buffers in this protocol, was used. The cells were maintained in culture medium (Ham's F-12K) containing 10% (v/v) FBS, and 200 μg/mL Zeocin. For the assay, the cells were harvested and resuspended in culture medium with 2% FBS and without Zeocin, then were passed through a 40 μm filter. Cells were added at 20000 cells in a 5 μL/well to a 384-well white small volume cell culture plate (Greiner VWR, Radnor, PA) which contained 50 nL/well of test compound serially diluted at a selected concentration range in DMSO. 5 μL/well of prepared 2× Stimulation Buffer2 was then added to plates and was incubated at 37° C. with 5% CO2 for 1 h. 5 μL/well of agonist Cortistatin 14 (Bio-TechneR&D Systems, Minneapolis, MN) in 1× Stimulation Buffer 2, for a 1 μM final concentration, was then added to plates and incubated at 37° C. with 5% CO2 for 1 h. 6 μL/well of 1:20 diluted Detection Reagent Mix (d2 and Cryptate) was added to the plates and incubated for 1 h in the dark. Plates were read on the PHERAstar microplate reader (BMG Labtech Cary, NC) to determine the HTRF ratio of the acceptor and donor emission signals. The IP1 concentrations were calculated from a standard curve following the IP-One GQ kit instructions. Wells with DMSO only and wells with high concentration of reference antagonist were used as controls for normalization. Compound IC50 curves were globally fitted with 3- or 4-parameter Hill equation in a Genedata Screener (Genedata Basel, Switzerland).

| SMILES | IC50 [1] | IC50 [2] | IC50 [3] |
| --- | --- | --- | --- |
| CC(c1cc2ncc(Oc3ccc(F)cc3F)cc2cn1)N1CCC(F)(F)CC1 (stereo not shown) [Example 1, 3-(2,4-Difluorophenoxy)-7-(1-(4,4-difluoropiperidin-1-yl)ethyl)-1,6-naphthyridine] | 100 to 1000 nM | 0.1 to 100 nM | 100 to 1000 nM |
| CC(c1cc2ncc(Oc3ccc(F)cc3F)cc2cn1)N1CCCC(F)(F)C1 (stereo not shown) [Example 2, 3-(2,4-Difluorophenoxy)-7-(1-(3,3-difluoropiperidin-1-yl)ethyl)-1,6-naphthyridine] | – | 0.1 to 100 nM | 100 to 1000 nM |
| Fc1ccc(Oc2cnc3cc(C(N4CC5CCC4C5)C(F)(F)F)ncc3c2)c(F)c1 (stereo not shown) [Example 11, 7-(1-(2-Azabicyclo[2.2.1]heptan-2-yl)-2,2,2-trifluoroethyl)-3-(2,4-difluorophenoxy)-1,6-naphthyridine] | 100 to 1000 nM | – | – |
| O=c1ccc(C2CCCN2C(c2cc3ncc(Oc4ccc(F)cc4F)cc3cn2)C(F)(F)F)c[nH]1 (stereo not shown) [Example 20, 5-(1-(1-(3-(2,4-Difluorophenoxy)-1,6-naphthyridin-7-yl)-2,2,2-trifluoroethyl)pyrrolidin-2-yl)pyridin-2(1H)-one] | 0.1 to 100 nM | – | 0.1 to 100 nM |
| CC1(O)CCCN(C(c2cc3ncc(Oc4ccc(F)cc4F)cc3cn2)C(F)F)C1 (stereo not shown) [Example 21, 1-(1-(3-(2,4-Difluorophenoxy)-1,6-naphthyridin-7-yl)-2,2-difluoroethyl)-3-methylpiperidin-3-ol] | 0.1 to 100 nM | 0.1 to 100 nM | – |
| Fc1ccc(Oc2cnc3cc(C(C(F)F)N4CCC(F)(F)CC4)ncc3c2)c(F)c1 (stereo not shown) [Example 22, 3-(2,4-Difluorophenoxy)-7-(1-(4,4-difluoropiperidin-1-yl)-2,2-difluoroethyl)-1,6-naphthyridine] | 0.1 to 100 nM | 0.1 to 100 nM | – |
| Fc1ccc(Oc2cnc3cc(C(C(F)F)N4CCCC(c5ccn[nH]5)C4)ncc3c2)c(F)c1 (stereo not shown) [Example 23, 7-(1-(3-(1H-Pyrazol-5-yl)piperidin-1-yl)-2,2-difluoroethyl)-3-(2,4-difluorophenoxy)-1,6-naphthyridine] | 0.1 to 100 nM | 0.1 to 100 nM | – |
| NC(=O)[C@@H]1CCCN1C(c1cc2ncc(Oc3ccc(F)cc3F)cc2cn1)C(F)F (stereo partly drawn) [Example 24, (2S)-1-(1-(3-(2,4-Difluorophenoxy)-1,6-naphthyridin-7-yl)-2,2-difluoroethyl)pyrrolidine-2-carboxamide] | 0.1 to 100 nM | 0.1 to 100 nM | – |
| Fc1ccc(Oc2cnc3cc(C(C(F)F)N4CCCC4c4ccccc4)ncc3c2)c(F)c1 (stereo not shown) [Example 25, 7-(2,2-Difluoro-1-(2-phenylpyrrolidin-1-yl)ethyl)-3-(2,4-difluorophenoxy)-1,6-naphthyridine] | 0.1 to 100 nM | 0.1 to 100 nM | – |
| O=c1ccc(C2CN(C(c3cc4ncc(Nc5ccc(F)cc5F)cc4cn3)C(F)(F)F)CCC2(F)F)c[nH]1 (stereo not shown) [Example 26, 5-(1-(1-(3-((2,4-Difluorophenyl)amino)-1,6-naphthyridin-7-yl)-2,2,2-trifluoroethyl)-4,4-difluoropiperidin-3-yl)pyridin-2(1H)-one] | > 1000 nM | – | – |
| O=c1ccc(C2CN(C(c3cc4ncc(Cc5ccccc5)cc4cn3)C(F)(F)F)CCC2(F)F)c[nH]1 (stereo not shown) [Example 27, 5-(1-(1-(3-Benzyl-1,6-naphthyridin-7-yl)-2,2,2-trifluoroethyl)-4,4-difluoropiperidin-3-yl)pyridin-2(1H)-one] | > 1000 nM | – | – |

The next lines start with the values.

| IC50 [1] | IC50 [2] | IC50 [3] | SMILES |
| --- | --- | --- | --- |
| 0.1 to 100 nM | 0.1 to 100 nM | – | CC1(C)CN(C(c2cc3ncc(Oc4ccc(F)cc4F)cc3cn2)C(F)(F)F)CCO1 (stereo not shown) [Example 8, 4-(1-(3-(2,4-Difluorophenoxy)-1,6-naphthyridin-7-yl)-2,2,2-trifluoroethyl)-2,2-dimethylmorpholine] |
| 0.1 to 100 nM | 0.1 to 100 nM | – | CC1(CO)CCCN(C(c2cc3ncc(Oc4ccc(F)cc4F)cc3cn2)C(F)(F)F)C1 (stereo not shown) [Example 9, (1-(1-(3-(2,4-Difluorophenoxy)-1,6-naphthyridin-7-yl)-2,2,2-trifluoroethyl)-3-methylpiperidin-3-yl)methanol] |
| 0.1 to 100 nM | 0.1 to 100 nM | – | N#CC1CCCN(C(c2cc3ncc(Oc4ccc(F)cc4F)cc3cn2)C(F)(F)F)C1 (stereo not shown) [Example 10, 1-(1-(3-(2,4-Difluorophenoxy)-1,6-naphthyridin-7-yl)-2,2,2-trifluoroethyl)piperidine-3-carbonitrile] |
| 0.1 to 100 nM | 0.1 to 100 nM | – | OC[C@@H]1CCCN1C(c1cc2ncc(Oc3ccc(F)cc3F)cc2cn1)C(F)(F)F (stereo partly drawn) [Example 13, ((2S)-1-(1-(3-(2,4-Difluorophenoxy)-1,6-naphthyridin-7-yl)-2,2,2-trifluoroethyl)pyrrolidin-2-yl)methanol] |
| 0.1 to 100 nM | – | 0.1 to 100 nM | O=c1ccc(C2CN(C(c3cc4ncc(Oc5ccc(F)cc5F)cc4cn3)C(F)(F)F)CCC2(F)F)c[nH]1 (stereo not shown) [Example 17, 5-(1-(1-(3-(2,4-Difluorophenoxy)-1,6-naphthyridin-7-yl)-2,2,2-trifluoroethyl)-4,4-difluoropiperidin-3-yl)pyridin-2(1H)-one] |
| 0.1 to 100 nM | – | 0.1 to 100 nM | Fc1ccc(Oc2cnc3cc(C(N4CC(F)(F)CC4c4ccccc4)C(F)(F)F)ncc3c2)c(F)c1 (stereo not shown) [Example 18, 7-(1-(4,4-Difluoro-2-phenylpyrrolidin-1-yl)-2,2,2-trifluoroethyl)-3-(2,4-difluorophenoxy)-1,6-naphthyridine] |
| 0.1 to 100 nM | – | 0.1 to 100 nM | Fc1ccc(Oc2cnc3cc(C(N4CCC(F)(F)C4c4ccccc4)C(F)(F)F)ncc3c2)c(F)c1 (stereo not shown) [Example 19, 7-(1-(3,3-Difluoro-2-phenylpyrrolidin-1-yl)-2,2,2-trifluoroethyl)-3-(2,4-difluorophenoxy)-1,6-naphthyridine] |

From US20250206734A1, “BICYCLIC HETEROCYCLES AS MRGPRX2 ANTAGONISTS” (Incyte Corporation, priority 2023, published 2025)
